Laboratory results reported in ChEMBL document CHEMBL5032525, “In vitro, ex vivo and in vivo short-term screening of DHEA nitrate derivatives activity over Trypanosoma cruzi Ninoa and TH strains from Oaxaca State, México” (Bioorg Med Chem, 2021).

Assays:
Trypanosoma cruzi [1] = assay: microbe, parasite or virus in culture; format: functional, organism-based; conditions: MHOM/MX/1994/Ninoa, 48 h
Description: Trypanocidal activity against Trypanosoma cruzi MHOM/MX/1994/Ninoa assessed as inhibition of parasite growth measured after 48 hrs by MTT assay

Trypanosoma cruzi [2] = assay: microbe, parasite or virus in culture; format: functional, organism-based; conditions: ITRI/MX/2018/TH, 48 h
Description: Trypanocidal activity against Trypanosoma cruzi ITRI/MX/2018/TH assessed as inhibition of parasite growth measured after 48 hrs by MTT assay

[3] = Cytotoxicity against mouse J774.2 cells assessed as reduction in cell viability measured after 48 hrs by resazurin dye based assay
Trypanosoma cruzi [4] = assay: microbe, parasite or virus in culture; format: functional, organism-based; conditions: MHOM/MX/1994/Ninoa, 24 h
Description: Antitrypanosomal activity against Trypanosoma cruzi MHOM/MX/1994/Ninoa infected in animal assessed as reduction in viable parasite in blood measured after 24 hrs by neubauer chamber assay

in vitro [5] = conditions: mouse
Description: Selectivity index, ratio of CC50 for mouse J774.2 cells to IC50 for Trypanosoma cruzi MHOM/MX/1994/Ninoa

in vitro [6] = conditions: mouse; remark: listed apart in the source
Description: Selectivity index, ratio of CC50 for mouse J774.2 cells to IC50 for Trypanosoma cruzi ITRI/MX/2018/TH

`C[C@]12CC[C@H]3[C@@H](CC=C4C[C@@H](O)CC[C@@]43C)[C@@H]1CC[C@@H]2O` [ANDROSTENEDIOL] showed an IC50 (Trypanosoma cruzi [1]) of 2.23 µM, an IC50 (Trypanosoma cruzi [2]) of 37.1 µM and a CC50 at 48 h ([3]; j774.2) of 278 µM. For the same compound, the IC50 (Trypanosoma cruzi [4]) was over 300 µM, the selectivity ratio (in vitro [5]) was 125 and the selectivity ratio (in vitro [6]) was 7.5.
Work on `CC1CS(=O)(=O)CCN1/N=C/c1ccc([N+](=O)[O-])o1` (stereo unspecified) [NIFURTIMOX] yielded an IC50 (Trypanosoma cruzi [1]) of 7.09 µM and an IC50 (Trypanosoma cruzi [2]) of 19.3 µM.
Work on `O=C(Cn1ccnc1[N+](=O)[O-])NCc1ccccc1` [BENZNIDAZOLE] yielded an IC50 (Trypanosoma cruzi [2]) of 39.1 µM.
`C[C@]12CC[C@H]3[C@@H](CC=C4C[C@@H](O[N+](=O)[O-])CC[C@@]43C)[C@@H]1CC[C@@H]2O[N+](=O)[O-]` showed an IC50 (Trypanosoma cruzi [1]) of 347 µM, an IC50 (Trypanosoma cruzi [2]) of 77 µM and a CC50 at 48 h ([3]; J774.2 cells) of 151 µM. The IC50 (Trypanosoma cruzi [4]) was over 300 µM, the selectivity ratio (in vitro [5]; J774.2 cells) was 0.44 and the selectivity ratio (in vitro [6]; J774.2 cells) was 1.89.
In the case of `C[C@]12CC[C@H](O)CC1=CC[C@@H]1[C@@H]2CC[C@]2(C)C(=O)CC[C@@H]12` [PRASTERONE], the IC50 (Trypanosoma cruzi [1]) is reported as 62 µM, the IC50 (Trypanosoma cruzi [2]) is reported as 13.8 µM and the CC50 at 48 h ([3]; J774.2 cells) is reported as 198 µM. The IC50 (Trypanosoma cruzi [4]) was over 300 µM, the selectivity ratio (in vitro [5]; J774.2 cells) was 3.19 and the selectivity ratio (in vitro [6]; J774.2 cells) was 14.3.
With `C#C[C@]1(O)CC[C@H]2[C@@H]3CC=C4C[C@@H](O[N+](=O)[O-])CC[C@]4(CO[N+](=O)[O-])[C@H]3CC[C@@]21C` the IC50 (Trypanosoma cruzi [1]) was 2.8 µM, the IC50 (Trypanosoma cruzi [2]) was 321 µM and the CC50 at 48 h ([3]; J774.2 cells) was 39.8 µM. For the same compound, the IC50 (Trypanosoma cruzi [4]) was over 300 µM, the selectivity ratio (in vitro [5]; J774.2 cells) was 14.2 and the selectivity ratio (in vitro [6]; J774.2 cells) was 0.13.
Work on `C#C[C@]1(O[N+](=O)[O-])CC[C@H]2[C@@H]3CC=C4C[C@@H](O[N+](=O)[O-])CC[C@]4(CO[N+](=O)[O-])[C@H]3CC[C@@]21C` yielded an IC50 (Trypanosoma cruzi [1]) of 2.12 µM, an IC50 (Trypanosoma cruzi [2]) of 321 µM and a CC50 at 48 h ([3]; J774.2 cells) of 22.3 µM. The IC50 (Trypanosoma cruzi [4]) was over 300 µM, the selectivity ratio (in vitro [5]; J774.2 cells) was 11 and the selectivity ratio (in vitro [6]; J774.2 cells) was 0.07.
`C[C@]12CC[C@H](O[N+](=O)[O-])CC1=CC[C@@H]1[C@@H]2CC[C@]2(C)C(=O)CC[C@@H]12` gave an IC50 (Trypanosoma cruzi [1]) of 33.2 µM, an IC50 (Trypanosoma cruzi [2]) of 0.2 µM and a CC50 at 48 h ([3]; J774.2 cells) of 0.2 µM. It also gave an IC50 (Trypanosoma cruzi [4]) of over 300 µM, a selectivity ratio (in vitro [5]; J774.2 cells) of 0.01 and a selectivity ratio (in vitro [6]; J774.2 cells) of 1.
`C[C@]12CC[C@H]3[C@@H](CC=C4C[C@@H](O)CC[C@@]43CO)[C@@H]1CCC2=O` gave an IC50 (Trypanosoma cruzi [1]) of 36.2 µM, an IC50 (Trypanosoma cruzi [2]) of 476 µM and a CC50 at 48 h ([3]; J774.2 cells) of 75.4 µM. For the same compound, the IC50 (Trypanosoma cruzi [4]) was over 300 µM, the selectivity ratio (in vitro [5]; J774.2 cells) was 2.08 and the selectivity ratio (in vitro [6]; J774.2 cells) was 0.15.
With `C[C@]12CC[C@H]3[C@@H](CC=C4C[C@@H](O[N+](=O)[O-])CC[C@@]43CO[N+](=O)[O-])[C@@H]1CCC2=O` the IC50 (Trypanosoma cruzi [1]) was 48.3 µM, the IC50 (Trypanosoma cruzi [2]) was 430 µM and the CC50 at 48 h ([3]; J774.2 cells) was 130 µM. The IC50 (Trypanosoma cruzi [4]) was 295 µM, the selectivity ratio (in vitro [5]; J774.2 cells) was 2.68 and the selectivity ratio (in vitro [6]; J774.2 cells) was 0.3.
